Results taken from article PMC12715756 (ACS Chemical Neuroscience, 2025).
Read-outs that look alike come from different tables or passages of the source.

Experiments:
DAT [1] = biological target: T1, DAT (Homo sapiens, UniProt Q01959); details: uptake inhibition; DAT/SERT ratio = 1/DAT / 1/SERT
NET [2] = biological target: T2, NET (Homo sapiens, UniProt P23975); assay: Uptake inhibition assay, [3H]MPP+ uptake in HEK293 cells; assay type: cell-based; parameters: expressed in transfected cells; details: HEK293 cells, 0.02 μM [3H]MPP+; mean ± SD; read-out: IC50 ± SD, [3H]MPP+ uptake NET
SERT = SERT (Homo sapiens, UniProt P31645); assay: Uptake inhibition assay, [3H]5-HT uptake in HEK293 cells; assay type: cell-based; parameters: expressed in transfected cells
OCT2 = biological target: T3, OCT2 (Homo sapiens, UniProt O15244); assay: Uptake inhibition assay, [3H]MPP+ uptake in HEK293 cells
T3 sequence (O15244 1-555): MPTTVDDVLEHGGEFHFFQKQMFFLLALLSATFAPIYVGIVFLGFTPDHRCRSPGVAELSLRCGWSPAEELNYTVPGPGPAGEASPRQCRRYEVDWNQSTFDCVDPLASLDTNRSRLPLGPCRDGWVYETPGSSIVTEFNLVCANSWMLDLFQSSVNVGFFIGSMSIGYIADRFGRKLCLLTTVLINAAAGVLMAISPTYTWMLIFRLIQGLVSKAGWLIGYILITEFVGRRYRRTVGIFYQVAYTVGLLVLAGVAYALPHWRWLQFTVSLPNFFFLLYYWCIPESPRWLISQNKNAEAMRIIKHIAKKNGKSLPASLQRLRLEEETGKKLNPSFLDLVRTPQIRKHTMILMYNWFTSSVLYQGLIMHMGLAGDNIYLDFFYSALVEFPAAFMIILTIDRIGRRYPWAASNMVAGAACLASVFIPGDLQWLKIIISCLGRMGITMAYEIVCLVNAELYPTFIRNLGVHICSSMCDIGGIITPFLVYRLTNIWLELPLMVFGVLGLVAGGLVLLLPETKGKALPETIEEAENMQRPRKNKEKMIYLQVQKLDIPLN

NET [3] = biological target: T2, NET; assay: Release (superfusion) assay, NET mediated [3H]MPP+ release; details: for Emax: read-out: Emax [95%-CI], NET mediated [3H]MPP+ release
5-HT2A = biological target: T4, 5-HT2A (Homo sapiens, UniProt P28223); assay: Gq dissociation BRET assay in HEK293T cells; assay type: cell-based; details: for Emax ± SEM, %5-HT response 5-HT2A / EC50: Gq dissociation BRET; for Emax ± SEM, %5-HT response 5-HT2A: relative to 5-HT
T4 construct: expressed in transfected cells; host or cells: HEK293T (ATCC; RRID:CVCL_0063), transient transfection

5-HT2C = biological target: T5, 5-HT2C (Homo sapiens, UniProt P28335); assay: cell-based; details: for EC50: Gq dissociation BRET; for Emax: HEK-293T, read-out: Emax ± SEM, %5-HT response 5-HT2C
T5 construct: expressed in transfected cells; host or cells: HEK293T (ATCC; RRID:CVCL_0063), transient transfection
T5 sequence (P28335 33-458): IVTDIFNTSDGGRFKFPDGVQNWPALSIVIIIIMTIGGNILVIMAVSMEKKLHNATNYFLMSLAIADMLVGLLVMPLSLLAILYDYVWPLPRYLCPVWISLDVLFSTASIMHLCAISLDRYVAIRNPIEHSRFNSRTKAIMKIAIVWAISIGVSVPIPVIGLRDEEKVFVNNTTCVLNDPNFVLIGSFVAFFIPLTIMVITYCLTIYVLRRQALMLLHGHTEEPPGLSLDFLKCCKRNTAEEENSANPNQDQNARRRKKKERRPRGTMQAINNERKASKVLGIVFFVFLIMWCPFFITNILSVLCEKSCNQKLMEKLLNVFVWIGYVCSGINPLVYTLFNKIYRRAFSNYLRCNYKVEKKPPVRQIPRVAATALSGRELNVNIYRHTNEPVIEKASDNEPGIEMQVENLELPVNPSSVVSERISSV

DAT [4] = biological target: T1, DAT; details: for DAT/SERT ratio (EC50): efflux assays
5-HT2B = biological target: T6, 5-HT2B (Homo sapiens, UniProt P41595); assay: Gq dissociation BRET assay in HEK293T cells; assay type: cell-based; details: for EC50: Gq dissociation BRET, read-out: EC50 5-HT2B; for Emax: HEK-293T, read-out: Emax ± SEM, %5-HT response 5-HT2B
T6 construct: expressed in transfected cells; host or cells: HEK293T (ATCC; RRID:CVCL_0063), transient transfection

male C57BL/6J mice = assay: Head-twitch response (HTR); assay type: in vivo; details: IP, 30 min, doses based on the salt form
Protocol: Male Swiss CD-1 mice (Janvier, Le Genest, France), weighing 30–35 g and aged 6–8 weeks, were used for HLA, thigmotaxis, CPP, and core body temperature experiments. Animals were housed under temperature-controlled conditions (22 ± 1 °C) with a 12 h light/dark cycle and had free access to food and water (standard laboratory diet, Panlab SL, Barcelona, Spain). Doses for HLA, thigmotaxis, CPP, and core body temperature experiments were calculated based on the free base form of each compound. For HTR experiments, male C57BL/6J mice (6–8 weeks old) were obtained from Jackson Laboratories (Bar Harbor, ME, USA) and housed up to four per cage with a reversed light-cycle (lights on at 1900 h, off at 0700 h). Food and water were provided ad libitum, except during behavioral testing. Testing was conducted between 1000 and 1830 h. Doses for HTR experiments were calculated based on the respective salt forms of the compounds.
The HTR was assessed using a head-mounted magnet and a magnetometer detection coil. Mice were anesthetized, a small incision was made in the scalp, and a small neodymium magnet was attached to the dorsal surface of the cranium by using dental cement. Following a two week recovery period, HTR experiments were carried out in a well-lit room with at least 7 days between sessions to avoid carryover effects. Mice (N = 4–7/group) received intraperitoneal (IP) injections of vehicle (saline) or test drug (5 mL/kg injection volume), and then activity was recorded in a glass cylinder surrounded by a magnetometer coil for 30 min. Doses for HTR experiments were calculated based on the respective salt forms of the compounds. Coil voltage was low-pass filtered (1 kHz cutoff frequency), amplified, digitized (20 kHz sampling rate, 16-bit ADC resolution), and saved to disk using a Powerlab 8/35 data acquisition system with LabChart software (ver. 8.1 ADInstruments, Colorado Springs, CO, USA). To detect head twitches, events in the recordings were transformed to scalograms, deep features were extracted using the deep convolutional neural network ResNet-50, and then the images were classified using a support vector machine (SVM). Head twitch counts were analyzed using one-way ANOVA. Posthoc comparisons were made using Dunnett’s test.

DAT [5] = biological target: T1, DAT; assay: cell-based; details: read-out: Emax [95%-CI], DAT mediated [3H]MPP+ release

T2 sequence (P23975 whole entry): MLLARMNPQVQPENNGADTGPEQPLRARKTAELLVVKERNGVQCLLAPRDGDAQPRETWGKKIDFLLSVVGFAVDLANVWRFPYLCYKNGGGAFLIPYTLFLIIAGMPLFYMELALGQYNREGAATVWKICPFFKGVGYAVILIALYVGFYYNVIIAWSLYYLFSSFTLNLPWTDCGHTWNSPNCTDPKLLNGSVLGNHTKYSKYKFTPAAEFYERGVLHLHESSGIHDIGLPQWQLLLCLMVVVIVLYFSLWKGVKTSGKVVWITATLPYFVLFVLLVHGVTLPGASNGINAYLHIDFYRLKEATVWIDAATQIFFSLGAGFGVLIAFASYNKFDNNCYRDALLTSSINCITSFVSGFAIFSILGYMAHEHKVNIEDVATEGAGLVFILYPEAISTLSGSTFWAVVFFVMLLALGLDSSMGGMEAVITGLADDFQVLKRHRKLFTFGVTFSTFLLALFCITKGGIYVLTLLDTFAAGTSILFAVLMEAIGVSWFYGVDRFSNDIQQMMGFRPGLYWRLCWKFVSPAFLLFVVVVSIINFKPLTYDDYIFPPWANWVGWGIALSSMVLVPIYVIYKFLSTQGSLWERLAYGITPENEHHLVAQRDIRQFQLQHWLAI
T6 sequence (P41595 whole entry): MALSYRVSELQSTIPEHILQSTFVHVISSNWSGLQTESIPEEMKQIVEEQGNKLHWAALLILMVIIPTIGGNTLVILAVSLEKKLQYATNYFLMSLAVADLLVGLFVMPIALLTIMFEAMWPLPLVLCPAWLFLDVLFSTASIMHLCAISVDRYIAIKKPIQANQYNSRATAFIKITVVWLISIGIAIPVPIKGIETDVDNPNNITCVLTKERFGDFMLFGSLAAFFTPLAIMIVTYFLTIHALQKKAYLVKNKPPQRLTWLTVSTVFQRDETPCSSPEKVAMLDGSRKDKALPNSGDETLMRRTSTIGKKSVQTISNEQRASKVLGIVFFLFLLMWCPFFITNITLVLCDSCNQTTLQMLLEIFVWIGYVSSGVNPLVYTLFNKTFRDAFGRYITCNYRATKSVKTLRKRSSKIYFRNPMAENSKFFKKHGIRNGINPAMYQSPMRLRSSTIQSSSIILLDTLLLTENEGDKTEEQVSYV
T4 sequence (P28223 whole entry): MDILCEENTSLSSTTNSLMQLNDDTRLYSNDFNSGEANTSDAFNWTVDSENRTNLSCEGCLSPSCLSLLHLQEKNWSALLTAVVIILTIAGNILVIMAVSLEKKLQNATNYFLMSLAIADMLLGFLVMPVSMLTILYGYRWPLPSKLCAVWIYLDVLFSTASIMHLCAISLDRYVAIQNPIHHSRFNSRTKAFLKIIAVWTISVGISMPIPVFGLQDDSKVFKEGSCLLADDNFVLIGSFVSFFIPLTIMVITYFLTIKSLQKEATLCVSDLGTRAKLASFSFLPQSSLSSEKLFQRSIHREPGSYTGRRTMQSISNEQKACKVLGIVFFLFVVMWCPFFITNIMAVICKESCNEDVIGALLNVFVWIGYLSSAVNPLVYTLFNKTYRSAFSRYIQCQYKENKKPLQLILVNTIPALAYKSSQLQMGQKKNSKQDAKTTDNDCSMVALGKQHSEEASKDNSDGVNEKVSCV
T1 sequence (Q01959 whole entry): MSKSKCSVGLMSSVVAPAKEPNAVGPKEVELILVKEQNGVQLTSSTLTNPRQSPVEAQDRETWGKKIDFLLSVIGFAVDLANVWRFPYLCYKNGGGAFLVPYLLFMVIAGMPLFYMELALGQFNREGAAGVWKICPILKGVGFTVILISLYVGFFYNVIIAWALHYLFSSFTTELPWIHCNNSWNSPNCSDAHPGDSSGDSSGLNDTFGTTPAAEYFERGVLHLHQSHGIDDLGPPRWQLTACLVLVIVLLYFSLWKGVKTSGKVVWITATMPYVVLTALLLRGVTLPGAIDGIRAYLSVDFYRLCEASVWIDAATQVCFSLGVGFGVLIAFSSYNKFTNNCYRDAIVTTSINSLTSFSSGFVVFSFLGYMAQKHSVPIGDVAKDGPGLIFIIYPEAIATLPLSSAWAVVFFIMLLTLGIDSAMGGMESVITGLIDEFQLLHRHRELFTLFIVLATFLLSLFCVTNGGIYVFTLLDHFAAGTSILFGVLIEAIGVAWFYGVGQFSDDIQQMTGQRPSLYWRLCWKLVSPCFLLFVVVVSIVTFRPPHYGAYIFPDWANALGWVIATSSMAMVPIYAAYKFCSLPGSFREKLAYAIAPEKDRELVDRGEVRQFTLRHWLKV
Chain of SERT (P31645 whole entry): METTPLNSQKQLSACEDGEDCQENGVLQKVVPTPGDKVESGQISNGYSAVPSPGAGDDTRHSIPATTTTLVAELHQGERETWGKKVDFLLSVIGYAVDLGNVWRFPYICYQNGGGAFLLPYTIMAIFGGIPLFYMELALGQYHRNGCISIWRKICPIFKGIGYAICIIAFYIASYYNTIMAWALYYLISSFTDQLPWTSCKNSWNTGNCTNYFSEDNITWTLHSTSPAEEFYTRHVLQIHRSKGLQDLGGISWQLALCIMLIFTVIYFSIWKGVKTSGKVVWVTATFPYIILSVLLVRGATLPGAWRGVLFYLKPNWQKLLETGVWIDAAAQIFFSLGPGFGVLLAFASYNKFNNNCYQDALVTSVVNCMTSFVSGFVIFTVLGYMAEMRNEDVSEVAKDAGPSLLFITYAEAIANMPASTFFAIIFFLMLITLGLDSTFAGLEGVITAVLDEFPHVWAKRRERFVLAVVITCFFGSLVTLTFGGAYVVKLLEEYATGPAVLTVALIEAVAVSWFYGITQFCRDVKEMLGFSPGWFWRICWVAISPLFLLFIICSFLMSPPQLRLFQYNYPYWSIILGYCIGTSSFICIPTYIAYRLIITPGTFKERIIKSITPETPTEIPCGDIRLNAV

Row | Compound | DAT/SERT ratio (IC50) (DAT [1]) | IC50 (NET [2]) [nM] | IC50 (SERT) [nM] | IC50 (OCT2) [nM] | EC50 (NET [3]) [nM] | type of releaser at NET (NET [3]) | Emax (NET [3]) [%] | Emax ± SEM, %5-HT response 5-HT2A (5-HT2A) [%] | EC50 (5-HT2A; read-out: EC50 5-HT2A) [nM] | Emax (5-HT2A; HEK-293T, read-out: Emax ± SEM, %5-HT response 5-HT2A, Gq dissociation BRET, relative to 5-HT) [%] | EC50 (5-HT2C) [nM] | Emax (5-HT2C) [%] | type of releaser at DAT (DAT [4]) | DAT/SERT ratio (EC50) (DAT [4]) | EC50 (5-HT2B) [nM] | Emax (5-HT2B) [%] | HTR counts (male C57BL/6J mice) | Emax (DAT [5]) [%] | EC50 (5-HT2A; read-out: pEC50 ± SEM 5-HT2A (converted)) [nM]
1 | CNC(C)Cc1ccc2c(c1)SCO2 (stereo not drawn) [SDMA, 1-(1,3-benzoxathiol-5-yl)-N-methylpropan-2-amine] | 2.15 | 770 ± 390 | 4000 ± 870 | 4130 ± 600 | 360 | full releasers | 104 | 68.2 ± 1.8 | 1400 | < 70 | 656 | 79 ± 5.3 | partial releasers | 0.37 | 357 | 70 ± 3.4 | Neither MDMA nor SDMA induced an appreciable increase in HTR counts | 35.4 | –
2 | CC(N)Cc1ccc2c(c1)SCO2 (stereo not drawn) [SDA, 1-(1,3-benzoxathiol-5-yl)propan-2-amine] | 2.42 | 850 ± 240 | 3090 ± 680 | 5700 ± 600 | 150 | full releasers | 99.6 | 92.4 ± 2.0 | 340 | – | 48.1 | 92.9 ± 4.9 | partial releasers | 0.66 | 41.5 | 88.2 ± 3.7 | dose-related increase in HTR counts peaking at 3 mg/kg | 55.4 | 302
